pIC50: −log10 of the molar value. Read-outs that look alike come from different tables or passages of the source.
Experiments:
[1] = system: MGC80-3; assay: CCK-8 tumor cell proliferation, MGC80-3; assay type: cell-based, Human; conditions: read-out: IC50 for inhibiting the proliferation of tumor cells, MGC80-3
Protocol: (§1) Determination of half inhibitory concentration (IC50) of the compounds against tumor cells:
(§2) The tumor cells used herein were cultured in a cell culture medium listed in table 6 at 37° C. in an incubator with 5% CO2. Prior to experimentation, all cells used were correctly identified by STR profiling, and tested negative for mycoplasma through routine screenings.
(§3) IC50 values of the compounds of the present disclosure (including the compounds in Table 4 and compounds of examples 1-72) were measured using the Meilun Cell Counting Kit-S kit from Dalian Meilun Biotech Co., Ltd. Assay details are as follows: tumor cells were seeded in a 96-well plate at a density listed in Table 7. After 24 h, 100 μL of the inoculated cells were treated with 0.5 μL of the compounds of the present disclosure (including the compounds in Table 4 and compounds of examples 1-72) at 10 different successively decreasing concentrations (starting at the highest concentration of 10 μM; 5-fold serial dilutions). After the cells were treated with the compounds of the present disclosure for a period of time (the treatment times listed in Table 7), the cell viability detection reagent was added to the culture medium for cell viability assessment according to the instructions provided with the CCK-8 kit. […] The growth inhibition of the compounds of the present disclosure on cells was plotted by Prism Graphpad software, and the IC50 values of the compounds of the present disclosure were calculated therefrom.

[2] = system: LNcap; assay: CCK-8 tumor cell proliferation, LNcap; assay type: cell-based, Human; conditions: 96 h, read-out: IC50 for inhibiting the proliferation of tumor cells, LNcap
Protocol: as §1, §2, §3

[3] = system: Hep3B2.1-7; assay: CCK-8 tumor cell proliferation, Hep3B2.1-7; assay type: cell-based, Human; conditions: Homo sapiens, Hep3B2.1-7, 96 h, read-out: IC50 for inhibiting the proliferation of tumor cells, Hep3B2.1-7
Protocol: as §1, §2, §3

[4] = system: DU-145; assay: CCK-8 tumor cell proliferation, DU-145; assay type: cell-based, Human; conditions: DU-145, 96 h, read-out: IC50 for inhibiting the proliferation of tumor cells, DU-145
Protocol: as §1
(§4) The tumor cells used herein were cultured in a cell culture medium listed in table 6 at 37° C. in an incubator with 5% CO2.
(§5) After the cells were treated with the compounds of the present disclosure for a period of time (the treatment times listed in Table 7), the cell viability detection reagent was added to the culture medium for cell viability assessment according to the instructions provided with the CCK-8 kit. […] The growth inhibition of the compounds of the present disclosure on cells was plotted by Prism Graphpad software, and the IC50 values of the compounds of the present disclosure were calculated therefrom.

[5] = system: WSU-DLCL2; assay: CCK-8 tumor cell proliferation, WSU-DLCL2; assay type: cell-based, Human; conditions: read-out: IC50 for inhibiting the proliferation of tumor cells, WSU-DLCL2
Protocol: as §1, §4, §5

[6] = system: MM.1R; assay: CCK-8 tumor cell proliferation, MM.1R; assay type: cell-based; conditions: 72 h, read-out: IC50 for inhibiting the proliferation of tumor cells, MM.1R
Protocol: as §1, §4, §5

[7] = Homo sapiens, MGC-803, MGC80-3, 96 h

Structure (SMILES)	pIC50 [1, 7]	pIC50 ([2]; Homo sapiens)	pIC50 [3]	pIC50 ([4]; Homo sapiens)	pIC50 ([5]; Homo sapiens, WSUDLCL2, WSU-DLCL2, 96 h)	pIC50 [4]	pIC50 [6]	pIC50 ([1]; MGC80-3, 96 h)	pIC50 [2]	pIC50 ([5]; WSU-DLCL2, 96 h)
CC1(C)[C@H](NC(=O)c2ccc(N3CCC(CN4C5CC4CN(c4cc6c(cc4F)C(=O)N(C4CCC(=O)NC4=O)C6=O)C5)CC3)nc2)C(C)(C)[C@H]1Oc1ccc(C#N)c(Cl)c1 (stereo partly drawn) [GT-03404, N-((1r,3r)-3-(3-chloro-4-cyanophenoxy)-2,2,4,4-tetramethylcyclobutyl)-6-(4-((3-(2-(2,6-dioxopiperidin-3-yl)-6-fluoro-1,3-dioxoisoindolin-5-yl)-3,6-diazabicyclo[3.1.1]heptan-6-yl)methyl)piperidin-1-yl)nicotinamide]	6.30 to 7.00	6.00 to 6.30	6.30 to 7.00							
CC1(C)[C@H](NC(=O)c2ccc(N3CCC(CN4CC5CC(C4)N5c4ccc5c(c4)C(=O)N(C4CCC(=O)NC4=O)C5=O)CC3)nc2)C(C)(C)[C@H]1Oc1ccc(C#N)c(Cl)c1 (stereo partly drawn) [GT-03427, N-((1r,3r)-3-(3-chloro-4-cyanophenoxy)-2,2,4,4-tetramethylcyclobutyl)-6-(4-((6-(2-(2,6-dioxopiperidin-3-yl)-1,3-dioxoisoindolin-5-yl)-3,6-diazabicyclo[3.1.1]heptan-3-yl)methyl)piperidin-1-yl)nicotinamide]	6.30 to 7.00	6.00 to 6.30		5.30 to 6.00	6.30 to 7.00					
N#Cc1ccc(OC2CCC(NC(=O)c3ccc(N4CC5CCC(C4)N5CC4CCN(c5cc6c(cc5F)C(=O)N(C5CCC(=O)NC5=O)C6=O)CC4)nn3)CC2)cc1Cl (stereo not drawn) [GT-03450, N-((1r,4r)-4-(3-chloro-4-cyanophenoxy)cyclohexyl)-6-(8-((1-(2-(2,6-dioxopiperidin-3-yl)-6-fluoro-1,3-dioxoisoindolin-5-yl)piperidin-4-yl)methyl)-3,8-diazabicyclo[3.2.1]octan-3-yl)pyridazine-3-carboxamide]						5.30 to 6.00	6.30 to 7.00	6.30 to 7.00	6.30 to 7.00	6.00 to 6.30
N#Cc1ccc(OC2CCC(NC(=O)c3ccc(N4C5CC4CN(CC4CCN(c6cc7c(cc6F)C(=O)N(C6CCC(=O)NC6=O)C7=O)CC4)C5)nn3)CC2)cc1Cl (stereo not drawn) [GT-03451, N-((1r,4r)-4-(3-chloro-4-cyanophenoxy)cyclohexyl)-6-(3-((1-(2-(2,6-dioxopiperidin-3-yl)-6-fluoro-1,3-dioxoisoindolin-5-yl)piperidin-4-yl)methyl)-3,6-diazabicyclo[3.1.1]heptan-6-yl)pyridazine-3-carboxamide]						5.30 to 6.00	6.30 to 7.00	6.00 to 6.30	6.30 to 7.00	6.30 to 7.00
N#Cc1ccc(OC2CCC(NC(=O)c3ccc(N4CCC(CN5C6CC5CN(c5cc7c(cc5F)C(=O)N(C5CCC(=O)NC5=O)C7=O)C6)CC4)nn3)CC2)cc1Cl (stereo not drawn) [GT-03487, N-((1r,4r)-4-(3-chloro-4-cyanophenoxy)cyclohexyl)-6-(4-((3-(2-(2,6-dioxopiperidin-3-yl)-6-fluoro-1,3-dioxoisoindolin-5-yl)-3,6-diazabicyclo[3.1.1]heptan-6-yl)methyl)piperidin-1-yl)pyridazine-3-carboxamide]						5.30 to 6.00	6.30 to 7.00	6.30 to 7.00	6.30 to 7.00	6.30 to 7.00
N#Cc1ccc(OC2CCC(NC(=O)c3ccc(N4CCC(CN5C6CC5CN(c5ccc7c(c5)C(=O)N(C5CCC(=O)NC5=O)C7=O)C6)CC4)nn3)CC2)cc1Cl (stereo not drawn) [GT-03490, N-((1r,4r)-4-(3-chloro-4-cyanophenoxy)cyclohexyl)-6-(4-((3-(2-(2,6-dioxopiperidin-3-yl)-1,3-dioxoisoindolin-5-yl)-3,6-diazabicyclo[3.1.1]heptan-6-yl)methyl)piperidin-1-yl)pyridazine-3-carboxamide]						5.30 to 6.00	6.30 to 7.00	6.30 to 7.00	6.30 to 7.00	6.30 to 7.00

— US20250243210A1, “CRBN E3 LIGASE LIGAND COMPOUND, PROTEIN DEGRADER DEVELOPED BASED THEREON AND THEIR APPLICATIONS” (GLUETACS THERAPEUTICS (SHANGHAI) CO., LTD., priority 2021, published 2025)
